Experimental data as given in PubChem BioAssay AID1336 (NMMLSC, 2008).

These compounds were tested against Ras-related protein Rab-7a (dog), GTP binding (assay: Rab7 GTP binding inhibitors, potency, dose response, biochemical, wildtype, multiplex bead flow cytometry (AID 1336)). Settings: bead-based flow cytometry, fluorescent GTP binding to Rab7.

Question: How did the EC50 turn out when `O=C(O)c1ccccc1Sc1ncnc2sc3c(c12)CCC3` was run?
Answer: 2620 nM

Question: `O=C1CN=C(c2ccccc2)c2cc(Br)ccc2N1Cc1cc(=O)n2ccccc2n1` was tested. Which EC50 did it give?
Answer: 2700 nM

Question: With `Cc1cc(C(=O)O)sc1CNCc1ccccc1Cl` as the compound, how does the EC50 read?
Answer: 423 nM

Question: With `CC(C)C(NCc1c(Cl)cccc1Cl)C(=O)O` (configuration not stated) as the compound, how does the EC50 read?
Answer: 2230 nM

Question: How did the EC50 turn out when `Cc1sc(-n2c(C)cc(C=C3C(=O)NC(=O)NC3=O)c2C)c(C#N)c1C` was run?
Answer: 28900 nM

Question: For `COC(=O)c1cccnc1SCCc1ccccc1`, which EC50 is on record?
Answer: 14200 nM

Question: With `O=C(O)/C=C/c1cn(Cc2ccccc2)nc1-c1cccs1` as the compound, how does the EC50 read?
Answer: 2350 nM

Question: For `CCOc1ccc(/C=C2\SC(N3CCc4ccccc4C3)=NC2=O)cc1`, which EC50 is on record?
Answer: 11500 nM

Question: How did the EC50 turn out when `Cc1cc(C(=O)Oc2ccccc2C(=O)O)c(C)o1` was run?
Answer: 810 nM

Question: How did the EC50 turn out when `N#Cc1c(-c2ccccc2)nc(SCC(=O)Nc2ccccc2)[nH]c1=O` was run?
Answer: 6420 nM

Question: Which EC50 does the source give for `O=C(O)c1ccccc1NCCc1ccc(Cl)cc1` here?
Answer: 339 nM

Question: With `Cc1nn(Cc2ccccc2)c(Cl)c1C(=O)O` as the compound, how does the EC50 read?
Answer: 3540 nM
